Laboratory results taken from patent US20230365577A1, “Photodynamic Therapy and Diagnosis” (RMW CHO Group Limited, priority 2020, published 2023).

Experiments:
HH [1] = test: Cytotoxicity, pan-cancer panel; format: cell-based; details: T cell lymphoma
Method: (§1) To test for inherent cytotoxicity (i.e. “dark toxicity”) of the phyllochlorin analogue the culture media was replaced after 24 hours with fresh media containing 10% (v/v) AlamarBlue Cell Viability Reagent (ThermoFisher) and cells incubated at 37° C. for 6 hours. Untreated cells were used as a control. Fluorescence (Ex 555 nm/Em 596 nm) was measured using a Cytation 3 Multimode Plate Reader (Biotek), and cytotoxicity assessed according to the % viable cells remaining. All measurements were made in quadruplicate.
(§2) The activity of phyllochlorin analogues against multiple cancer cell types was assessed as above, using compounds 3 and 6 as examples.

HEK293 [2] = test: Cytotoxicity, pan-cancer panel; format: cell-based; details: HEK293, embryonic kidney
Method: as §1, §2

MDA-MB-468 = test: Cytotoxicity, pan-cancer panel; format: cell-based; details: MDA-MB-468, breast adenocarcinoma (triple negative)
Method: as §1, §2

B16F10 = test: Cytotoxicity, pan-cancer panel; format: cell-based; details: B16F10, melanoma
Method: as §1, §2

A549 = test: Cytotoxicity, pan-cancer panel; format: cell-based; details: A549, lung adenocarcinoma
Method: as §1, §2

DLD-1 = test: Cytotoxicity, pan-cancer panel; format: cell-based; details: DLD-1, colorectal adenocarcinoma
Method: as §1, §2

LP9 = test: Cytotoxicity, pan-cancer panel; format: cell-based; details: LP9, immortalised mesothelial cells
Method: as §1, §2

[3] = Singlet oxygen (1O2) production rate; format: physicochemical
From the text: The production of singlet oxygen (^1O2), cellular phototoxicity and light-independent cytotoxicity (“dark toxicity”) of a number of phyllochlorin analogues were compared against chlorin e4 disodium and Talaporfin sodium (mono-L-aspartyl chlorin e6), the active ingredient of Laserphyrin™.

[4] = tested on: 4T1 orthotopically implanted breast tumours; test: Photodynamic therapy of established breast tumours; format: in vivo, Balb/C wild type mice
Method: Balb/C wild type mice with established 4T1 orthotopically implanted breast tumours were administered compound 6 by IT injection. At 24 hours post-injection (allowing compound 6 to clear from non-tumour tissues), mice were placed in clear perspex cages and illuminated (whole body) under red (660 nm) light for a period of 20 minutes. Light (660 nm) was delivered at an intensity of 100 mW/cm^2 for 20 mins continuously, to achieve a total light dose of 120 J/cm^2. […]

[5] = In vivo toxicity in wild type mice; details: intravenous or intraperitoneal injection, 0.5 to 5 mg/kg
Method: The potential application of compound 6 as a representative phyllochlorin species was explored in vivo. Wild type mice (Balb/C and C57BL/6) received compound 6 by intravenous or intraperitoneal injection, with doses ranging from 0.5 to 5 mg/kg.

[6] = tested on: SKOV3 ovarian cancer cells; test: Inherent cytotoxicity (dark toxicity) in SKOV3 cells (AlamarBlue viability); format: cell-based, Human; details: human, 24 h
[7] = tested on: 4T1 murine breast cancer cells; test: Tumour localisation and retention, model 1 (subcutaneous 4T1 tumours); format: in vivo, Balb/C wild type mice
Method: Model 1 used Balb/C wild type mice implanted subcutaneously with 10^4×4T1 murine breast cancer cells. When tumours reached a palpable size (˜3-6 mm diameter) mice received compound 6 by either oral gavage (ORAL: 2.5 mg/kg), intravenous injection (IV: 1.0 mg/kg), or intratumoral injection (IT: 1.0 mg/kg in […]). To establish compound 6 localisation, mice were imaged using an IVIS Lumina III In Vivo Imaging System (Perkin Elmer) to detect fluorescence at 660 nm when illuminated under blue (400-460 nm) light.
In a second experiment, the localisation of compound 6 at 24 hours post-administration was compared to that of Talaporfin sodium and 5-Aminolevulinic acid (5-ALA), with all compounds injected at 0.1 mg/kg IT. Fluorescence measurements were made using an IVIS Lumina III instrument (as above).

HH [8] = test: Phototoxicity, pan-cancer panel; format: cell-based; details: Homo sapiens, light or radiation study, T cell lymphoma
Method: (§3) To test for phototoxicity, cells incubated with phyllochlorin analogues (0-10 μM in DMSO) had culture media replaced after 24 hours (as above) and were then exposed to a 652 nm laser (Invion) with laser density at 50 mW/cm^2 for 5 mins (total 15 J/cm^2). Following activation, cells were cultured for a further 24 hours. Media was then replaced with fresh media containing AlamarBlue, and % viable cells remaining assessed as above. Controls included cells treated with phyllochlorin analogues but not activated by laser light; cells without phyllochlorin analogue treatment but with laser light; and untreated controls. All measurements were made in quadruplicate.
as §2

HEK293 [9] = test: Phototoxicity, pan-cancer panel; format: cell-based; details: Homo sapiens, light or radiation study; HEK293, embryonic kidney
Method: as §3, §2

Question: For `C=Cc1c(C)c2cc3nc(c(C)c4cc(C)c(cc5nc(cc1[nH]2)C(C)=C5CC)[nH]4)[C@@H](CCC(=O)N(C)CCCS[C@@H]1O[C@H](CO)[C@@H](O)[C@H](O)[C@H]1O)[C@@H]3C` [Compound 6, 3-((7S,8S)-18-ethyl-2,5,8,12,17-pentamethyl-13-vinyl-7H,8H-porphyrin-7-yl)-N-methyl-N-(3-(((2S,3R,4S,5S,6R)-3,4,5-trihydroxy-6-(hydroxymethyl)tetrahydro-2H-pyran-2-yl)thio)propyl)propanamide], which “Cytotoxicity IC10” value (HH [1]) is on record?
Answer: 10.25 µM

Question: And the “Cytotoxicity IC10” value (HEK293 [2])?
Answer: 8.16 µM

Question: What about the “Cytotoxicity IC10” value (MDA-MB-468) of the same compound?
Answer: 13.25 µM

Question: What about the “Cytotoxicity IC10” value (B16F10) of the same compound?
Answer: 22.85 µM

Question: What about the “Cytotoxicity IC10” value (A549) of the same compound?
Answer: 29.52 µM

Question: And the “Cytotoxicity IC10” value (DLD-1)?
Answer: 9.20 µM

Question: What about the “Cytotoxicity IC10” value (LP9) of the same compound?
Answer: 19.63 µM

Question: And the “Singlet Oxygen Production (slope) 1O2” value [3]?
Answer: 1700.0

Question: And the Tumour response ([4]; IT injection plus 660 nm light 120 J/cm2 at 24 hours, after 14 days)?
Answer: regressed to an undetectable level

Question: And the “Time to endpoint (tumour size ≥100 mm2)” value ([4]; compound alone, no laser)?
Answer: ≤ 13 days

Question: What about the Tumour regrowth ([4]; compound plus laser, after 3 weeks) of the same compound?
Answer: no evidence of regrowth

Question: And the “Time to regression of established tumours to an undetectable level” value ([4]; compound plus laser, n=2/group)?
Answer: ≤ 14 days

Question: What about the Adverse toxic events [5] of the same compound?
Answer: no adverse toxic events observed at any dose

Question: What about the “Cellular Toxicity: Dark toxicity IC10” value [6] of the same compound?
Answer: 9.49 µM

Question: What about the “Cytotoxicity IC10” value [6] of the same compound?
Answer: 9.49 µM

Question: What about the “Tumour localisation at 24 hours post-administration” value ([7]; 0.1 mg/kg IT, primary breast tumours, IVIS fluorescence) of the same compound?
Answer: localised strongly to tumour

Question: What about the “Localisation and retention in tumour tissue” value ([7]; IT 1.0 mg/kg, model 1) of the same compound?
Answer: at least 48 hours

Question: What about the “Fluorescence retained in tumour” value ([7]; IV 1.0 mg/kg, model 1) of the same compound?
Answer: at least 4 hours

Question: What about the “Time of peak in tumour” value ([7]; IV 1.0 mg/kg, model 1) of the same compound?
Answer: 1 h

Question: And the “Tumour fluorescence at 24 hours post-injection” value ([7]; IV 1.0 mg/kg, model 1)?
Answer: undetectable

Question: And the “Retention in tumour tissues following administration” value ([7]; in all cases (models 1 and 2, all routes))?
Answer: at least 24 hours

Question: What about the “Clearance from healthy tissues” value ([7]; in all cases, dependent on the tissue type) of the same compound?
Answer: 4 to 16 h

Question: What about the “Time of peak levels in tumour” value ([7]; oral gavage 2.5 mg/kg, model 1) of the same compound?
Answer: 4 h

Question: And the “Time remaining above background in tumour” value ([7]; oral gavage 2.5 mg/kg, model 1)?
Answer: at least 24 hours

Question: And the IC90 (HH [8])?
Answer: 0.03 µM

Question: And the IC90 (HEK293 [9])?
Answer: 0.2 µM
